Reference: US20200399222A1, “PICOLINAMIDES AS FUNGICIDES” (Dow AgroSciences LLC, priority 2018, published 2020)
Like-named read-outs stand apart in the source and are kept apart here.

Experiments:
Assay type in all cases: in vivo
Phakopsora pachyrhizi = assay: Asian soybean rust (PHAKPA) disease control on soybean seedlings; conditions: Phakopsora pachyrhizi, High volume application at 25 ppm
Outline: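 Compounds in acetone diluted with nine volumes of water containing 0.011% Tween 20, sprayed to run-off on two-week-old Williams 82 soybean seedlings; inoculation 3 days before or 1 day after treatment. Plants held 24 h in dark dew room at 22° C, 100% RH, then at 23° C; disease severity scored on sprayed leaves.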

Puccinia triticina = assay: Wheat brown rust (PUCCRT) disease control on wheat seedlings; conditions: for pest or weed control at 121.5 g/ha: Low volume application; for pest or weed control at 100 ppm: High volume application
Outline: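 Yuma wheat seedlings (first leaf emerged) sprayed to run-off with compound in acetone plus nine volumes water containing 110 ppm Triton X-100, or track-sprayed as EC formulations with 0.1% Trycol 5941. Rust spores inoculated before or after treatment; overnight dark dew, 22 °C, 100% RH, then greenhouse at 24 °C.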

Zymoseptoria tritici = assay: Leaf blotch of wheat (SEPTTR) disease control on wheat seedlings; conditions: for pest or weed control at 121.5 g/ha: Low volume application; for pest or weed control at 100 ppm: High volume application
[1] = 24 h, 1 day protectant, read-out: PHAKPA 1DP (1 Day Protectant) disease control
[2] = 72 h, 3 day curative, read-out: PHAKPA 3DC (3 Day Curative) disease control
[3] = 24 h, 1 Day Protectant, read-out: PUCCRT disease control rating, 1DP
[4] = 72 h, 3 Day Curative, read-out: PUCCRT disease control rating, 3DC
[5] = 24 h, 1 Day Protectant, read-out: SEPTTR disease control rating, 1DP
[6] = 72 h, 3 Day Curative, read-out: SEPTTR disease control rating, 3DC

| SMILES | pest or weed control at 25 ppm (Phakopsora pachyrhizi; [1]) | pest or weed control at 25 ppm (Phakopsora pachyrhizi; [2]) | pest or weed control at 121.5 g/ha (Puccinia triticina; [3]) | pest or weed control at 121.5 g/ha (Puccinia triticina; [4]) | pest or weed control at 121.5 g/ha (Zymoseptoria tritici; [5]) | pest or weed control at 121.5 g/ha (Zymoseptoria tritici; [6]) | pest or weed control at 100 ppm (Puccinia triticina; [3]) | pest or weed control at 100 ppm (Puccinia triticina; [4]) | pest or weed control at 100 ppm (Zymoseptoria tritici; [5]) | pest or weed control at 100 ppm (Zymoseptoria tritici; [6]) |
| --- | --- | --- | --- | --- | --- | --- | --- | --- | --- | --- |
| COc1ccnc(C(=O)N[C@@H](C)C(=O)O[C@@H](C)[C@@H](C)c2c(C)cc(F)cc2C)c1OC(C)=O [Example 249] | > 80% | > 80% | > 80% | > 80% | > 80% | > 80% | – | – | – | – |
| COc1ccnc(C(=O)N[C@@H](C)C(=O)O[C@H](C)[C@H](C)c2ccc(F)cc2C(F)(F)F)c1OC(C)=O [Example 251] | > 80% | < 80% | < 80% | < 80% | < 80% | < 80% | – | – | – | – |
| COc1cc(F)ccc1[C@@H](C)[C@@H](C)OC(=O)[C@H](C)NC(=O)c1c(O)c(OC)cc[n+]1[O-] [Example 277] | < 80% | < 80% | < 0% | < 80% | < 80% | < 80% | < 80% | < 0% | < 80% | < 80% |
| COc1ccnc(C(=O)N[C@@H](C)C(=O)O[C@H](C)[C@H](C)c2ccc(F)cc2)c1OCOC(C)=O [Example 232] | < 80% | < 0% | > 80% | < 80% | < 0% | < 80% | – | – | – | – |
| COc1ccccc1[C@H](C)[C@H](C)OC(=O)[C@H](C)NC(=O)c1nccc(OC)c1OC(C)=O [Example 257] | < 80% | < 0% | < 80% | < 80% | < 80% | < 80% | – | – | – | – |
| COc1cc(F)ccc1[C@@H](C)[C@@H](C)OC(=O)[C@H](C)NC(=O)c1nccc(OC)c1OC(C)=O [Example 260] | > 80% | < 80% | < 0% | < 0% | < 80% | < 0% | > 80% | < 80% | < 80% | < 80% |
| COc1ccnc(C(=O)N[C@@H](C)C(=O)O[C@@H](C)[C@@H](C)c2c(C)cccc2C)c1OC(=O)C(C)C [Example 237] | > 80% | > 80% | < 80% | < 80% | < 80% | < 80% | – | – | – | – |
| COc1cc[n+]([O-])c(C(=O)N[C@@H](C)C(=O)O[C@@H](C)[C@@H](C)c2ccc(F)cc2C(F)(F)F)c1O [Example 274] | < 80% | < 80% | < 80% | < 80% | < 80% | < 80% | – | – | – | – |
| COc1ccnc(C(=O)N[C@@H](C)C(=O)O[C@@H](C)[C@@H](C)C2CCCC2)c1OC(C)=O [Example 247] | > 80% | < 80% | < 80% | < 80% | < 80% | < 80% | – | – | – | – |
| COc1ccnc(C(=O)N[C@@H](C)C(=O)O[C@@H](C)[C@@H](C)C2CCCC2)c1OC(=O)C(C)C [Example 236] | > 80% | < 0% | < 80% | < 80% | < 80% | < 0% | – | – | – | – |
| COc1ccnc(C(=O)N[C@@H](C)C(=O)O[C@@H](C)[C@@H](C)c2ccccc2C)c1O [Example 175] | > 80% | > 80% | – | – | – | – | > 80% | > 80% | < 80% | < 80% |
| COc1cc[n+]([O-])c(C(=O)N[C@@H](C)C(=O)O[C@@H](C)[C@@H](C)C2CCCC2)c1O [Example 275] | < 80% | < 80% | < 80% | < 0% | < 0% | < 0% | – | – | – | – |
| COc1ccnc(C(=S)N[C@@H](C)C(=O)O[C@@H](C)[C@@H](C)c2ccc(F)cc2C(F)(F)F)c1OC(C)=O [Example 271] | > 80% | > 80% | < 80% | < 80% | < 80% | < 80% | – | – | – | – |
| COc1ccnc(C(=O)N[C@@H](C)C(=O)O[C@@H](C)[C@@H](C)c2ccc(C)cc2C)c1OC(=O)C(C)C [Example 179] | > 80% | > 80% | > 80% | > 80% | < 80% | < 80% | – | – | – | – |
| COc1ccnc(C(=O)N[C@@H](C)C(=O)O[C@@H](C)[C@@H](C)c2ccccc2C(F)(F)F)c1O [Example 158] | – | < 80% | – | – | – | – | > 80% | > 80% | > 80% | < 80% |
| COc1ccnc(C(=O)N[C@@H](C)C(=O)O[C@H](C)[C@H](C)c2c(C)cccc2C)c1OC(C)=O [Example 253] | > 80% | > 80% | > 80% | < 80% | < 80% | < 80% | – | – | – | – |
| COc1ccnc(C(=O)N[C@@H](C)C(=O)O[C@H](C)[C@H](C)C2CCCC2)c1OC(C)=O [Example 252] | < 80% | < 80% | < 0% | < 80% | < 0% | < 80% | – | – | – | – |
| COc1ccnc(C(=O)N[C@@H](C)C(=O)O[C@@H](C)[C@@H](C)c2ccc(F)cc2C(F)(F)F)c1O [Example 159] | – | > 80% | – | – | – | – | > 80% | > 80% | > 80% | > 80% |
| COc1ccnc(C(=O)N[C@@H](C)C(=O)O[C@@H](C)[C@@H](C)c2c(C)cccc2C)c1OC(C)=O [Example 248] | > 80% | > 80% | > 80% | < 80% | < 80% | > 80% | – | – | – | – |
| COc1ccnc(C(=O)N[C@@H](C)C(=O)O[C@H](C)[C@H](C)c2c(C)cc(F)cc2C)c1OC(=O)C(C)C [Example 242] | > 80% | > 80% | > 80% | < 80% | > 80% | > 80% | – | – | – | – |
